In brackets after ≈: the same amount, converted by molar mass. Like-named read-outs stand apart in the source and are kept apart here.
Assays:
[1] = test system: M.tb Erdman; assay: Broth microdilution MIC with Alamar blue endpoint (MABA) / OD600; format: cell-based, Mycobacterium tuberculosis
[2] = test system: human hepatocyte/liver (HepG2; ATCC #HB8065) cells; assay: In vitro cytotoxicity (PrestoBlue cell viability), HepG2; format: cell-based
[3] = test system: M. Tuberculosis Erdman or H37Rv vs VERO or HepG2 cells; assay: Selectivity Index (mammalian cell IC50 / bacterial MIC); set-up: species or system Mycobacterium tuberculosis
[4] = test system: M.tb H37Rv; assay: Broth microdilution MIC with Alamar blue endpoint (MABA) / OD600; format: cell-based, Mycobacterium tuberculosis
[5] = test system: African green monkey kidney (Vero; ATCC # CCL81) cells; assay: In vitro cytotoxicity (PrestoBlue cell viability), Vero; format: cell-based
[6] = Liposome loading / encapsulation efficiency (General protocol)
[7] = test system: MRSA ATCC 43300; assay: MIC against methicillin resistant Staphylococcus aureus (MRSA); conditions: read-out: MRSA MIC, ATCC 43300
[8] = test system: MRSA 880 NR-49120; assay: as above; conditions: read-out: MRSA MIC, 880 NR-49120
[9] = test system: MRSA ATCC BAA-1556; assay: as above
[10] = test system: MRSA strain MW-2 (USA 400); assay: Rabbit left-sided aortic valve endocarditis model of MRSA; format: in vivo, Staphylococcus aureus (in New Zealand white rabbits); conditions: for Kidneys, MRSA count / Liver, MRSA count / Lungs, MRSA count / Spleen, MRSA count / Vegetations, MRSA count: rabbits, DAP 2 mg/kg daily for four days alone
[11] = Mycobacterium tuberculosis, ERDMAN; read-out: Mycobacterium tuberculosis MIC, Erdman
[12] = Homo sapiens, HepG2, 72 h; read-out: Cell viability IC50, HepG2
[13] = Mycobacterium tuberculosis, H37RV; read-out: Mycobacterium tuberculosis MIC, H37Rv
[14] = Chlorocebus sabaeus, Vero, 72 h; read-out: Cell viability IC50, VERO
[15] = Mycobacterium tuberculosis, ERDMAN, read-out: Mycobacterium tuberculosis MIC, Erdman
[16] = Mycobacterium tuberculosis, H37RV, read-out: Mycobacterium tuberculosis MIC, H37Rv
[17] = Homo sapiens, HepG2, 72 h, read-out: Cell viability IC50, HepG2
[18] = Chlorocebus sabaeus, Vero, 72 h, read-out: Cell viability IC50, VERO

| Structure (SMILES) | MIC [1, 11] [µg/mL] | IC50 [2, 12] [µg/mL] | Selectivity Index (SI) Erd/HepG2 [3] | Selectivity Index (SI) Erd/VERO [3] | MIC [4, 13] [µg/mL] | IC50 [5, 14] [µg/mL] | further results |
| --- | --- | --- | --- | --- | --- | --- | --- |
| CN(C)C[C@H]1CN(c2ccc(-c3ccc(-c4nnn(C)n4)nc3)c(F)c2)C(=O)O1 [AKG-1] | > 8 | 116 (≈ 292 µM) | <14.5 | <14.1 | > 8 | 113 (≈ 283 µM) | – |
| CCN(CC)C[C@H]1CN(c2ccc(-c3ccc(-c4nnn(C)n4)nc3)c(F)c2)C(=O)O1 [AKG-2] | > 8 | 24.5 (≈ 57.6 µM) | <3.1 | <8.5 | > 8 | 67.9 (≈ 160 µM) | – |
| CN(C)CCCC(=O)OC[C@H]1CN(c2ccc(-c3ccc(-c4nnn(C)n4)nc3)c(F)c2)C(=O)O1 [AKG-5] | 1 (≈ 2.07 µM) | 30.8 (≈ 63.7 µM) | 30.8 | – | 1 (≈ 2.07 µM) | 32.5 (≈ 67.2 µM) | Maximum encapsulated drug payload ([6]; 0.5 M AS, 0.5 mol% PEG): 627 g/mol PhL; loading efficiency at or near the maximum drug load ([6]; 1 N TEA-SOS, DL0 750-1500 g/mol PhL): ≥ 96.0%; maximum drug load ([6]; 1 N TEA-SOS, DL0 750-1500 g/mol PhL, no buffer): 982-1197 g/mol PhL; stability during liposome loading (HPLC) ([6]; Example 12): Degradation of AKG-5 during the liposome loading was detected; Drug loading efficiency ([6]; PEG-DSG 0.5 mol%, 1 N TEA-SOS, DL0 500 g/mol PhL): 101.3; Drug loading efficiency ([6]; PEG-DSG 0.5 mol%, […] AS, DL0 250 g/mol PhL): 98.5; Drug loading efficiency ([6]; PEG-DSG 0.5 mol%, […] AS, DL0 500 g/mol PhL): 97.7; Drug loading efficiency ([6]; PEG-DSG 5 mol%, 1 N TEA-SOS, DL0 500 g/mol PhL): 99.3 |
| CN(C)CCC1CCN(C[C@H]2CN(c3ccc(-c4ccc(-c5nnn(C)n5)nc4)c(F)c3)C(=O)O2)CC1 [AKG-6] | > 8 | 15.5 (≈ 30.5 µM) | <1.9 | 3.4 | > 8 | 27.4 (≈ 53.9 µM) | – |
| CCN(CC)CCOC[C@H]1CN(c2ccc(-c3ccc(-c4nnn(C)n4)nc3)c(F)c2)C(=O)O1 [AKG-7] | > 8 | 11.2 (≈ 23.9 µM) | <1.4 | 13.0 | > 8 | 104 (≈ 221 µM) | – |
| CCN(CC)CCCNC[C@H]1CN(c2ccc(-c3ccc(-c4nnn(C)n4)nc3)c(F)c2)C(=O)O1 [AKG-8] | – | – | – | – | – | – | MIC [1, 15]: > 8 µg/mL; MIC [4, 16]: > 8 µg/mL |
| CCN(CC)CCNC[C@H]1CN(c2ccc(-c3ccc(-c4nnn(C)n4)nc3)c(F)c2)C(=O)O1 [AKG-9] | – | – | <3.5 | <17.4 | – | – | MIC [1, 15]: > 8 µg/mL; IC50 [2, 17]: 28.1 µg/mL (≈ 60 µM); MIC [4, 16]: > 8 µg/mL; IC50 [5, 18]: 139 µg/mL (≈ 297 µM) |
| CN(C)CCC1CCN(c2ccc(-c3ccc(N4C[C@H](CO)OC4=O)cc3F)cn2)CC1 [AKG-11] | 4 (≈ 9.04 µM) | 42.8 (≈ 96.7 µM) | 10.7 | 8.0 | 4 (≈ 9.04 µM) | 31.9 (≈ 72.1 µM) | – |
| CN(C)CCNc1ccc(-c2ccc(N3C[C@H](CO)OC3=O)cc2F)cn1 [AKG-12] | – | – | 16.9 | 22.3 | – | – | MIC [1, 15]: 4 µg/mL (≈ 10.7 µM); IC50 [2, 17]: 67.6 µg/mL (≈ 181 µM); MIC [4, 16]: 4 µg/mL (≈ 10.7 µM); IC50 [5, 18]: 89.1 µg/mL (≈ 238 µM) |
| CCN(CC)CCNc1ccc(-c2ccc(N3C[C@H](CO)OC3=O)cc2F)cn1 [AKG-13] | > 8 | 31.8 (≈ 79 µM) | <4.0 | <11.7 | > 8 | 93.9 (≈ 233 µM) | – |
| CN(C)CCCNc1ccc(-c2ccc(N3C[C@H](CO)OC3=O)cc2F)cn1 [AKG-14] | 8 (≈ 20.6 µM) | – | – | – | 8 (≈ 20.6 µM) | – | – |
| CCN(CC)CCCNc1ccc(-c2ccc(N3C[C@H](CO)OC3=O)cc2F)cn1 [AKG-15] | > 8 | 35.6 (≈ 85.5 µM) | <4.5 | <19.5 | > 8 | 156 (≈ 375 µM) | – |
| Cl.Cn1nnc(-c2ccc(-c3ccc(N4C[C@H](CNC(=O)CCN)OC4=O)cc3F)cn2)n1 [AKG-17] | – | – | – | – | – | – | Mycobacterium tuberculosis MIC, Erdman [1]: 2 µg/mL; Cell viability IC50, HepG2 ([2]; 72 h): 37.3 µg/mL; Mycobacterium tuberculosis MIC, H37Rv [4]: 2 µg/mL; Cell viability IC50, VERO ([5]; 72 h): >250 µg/mL |
| Cl.Cn1nnc(-c2ccc(-c3ccc(N4C[C@H](CNC(=O)CCCN)OC4=O)cc3F)cn2)n1 [AKG-18] | – | – | – | – | – | – | Mycobacterium tuberculosis MIC, Erdman [1]: 2 µg/mL; Cell viability IC50, HepG2 ([2]; 72 h): 9.5 µg/mL; Mycobacterium tuberculosis MIC, H37Rv [4]: 2 µg/mL; Cell viability IC50, VERO ([5]; 72 h): >250 µg/mL |
| Cl.Cn1nnc(-c2ccc(-c3ccc(N4C[C@H](CNC(=O)CCN)OC4=O)cc3F)cn2)n1 [AKG-19] | > 8 | 42.2 | 5.3 | >31.3 | > 8 | > 250 | – |
| CCN(CC)CCC(=O)OC[C@H]1CN(c2ccc(-c3ccc(-c4nnn(C)n4)nc3)c(F)c2)C(=O)O1 [AKG-20] | 0.5 (≈ 1 µM) | 15.1 (≈ 30.3 µM) | 30.2 | >500 | 0.5 (≈ 1 µM) | > 250 | – |
| CN(C)CCn1nnnc1-c1ccc(-c2ccc(N3C[C@H](CO)OC3=O)cc2F)cn1 [AKG-21] | > 8 | 156 (≈ 366 µM) | <19.5 | – | > 8 | > 250 | – |
| Cl.NCCn1nnc(-c2ccc(-c3ccc(N4C[C@H](CO)OC4=O)cc3F)cn2)n1 [AKG-23] | 0.25 | 7.3 | 29.2 | >1000 | 0.25 | > 250 | – |
| CCN(CC)CCn1nnc(-c2ccc(-c3ccc(N4C[C@H](CO)OC4=O)cc3F)cn2)n1 [AKG-24] | 1 (≈ 2.2 µM) | 11.4 (≈ 25 µM) | 11.4 | 31.3 | 1 (≈ 2.2 µM) | 31.3 (≈ 68.7 µM) | – |
| CN(C)CCCn1nnc(-c2ccc(-c3ccc(N4C[C@H](CO)OC4=O)cc3F)cn2)n1 [AKG-25] | 1 (≈ 2.27 µM) | 9.4 (≈ 21.3 µM) | 9.4 | 182.0 | 1 (≈ 2.27 µM) | 182 (≈ 412 µM) | – |
| CCN(CC)CCCn1nnc(-c2ccc(-c3ccc(N4C[C@H](CO)OC4=O)cc3F)cn2)n1 [AKG-26] | 2 (≈ 4.26 µM) | 9 (≈ 19.2 µM) | 4.5 | 64.3 | 2 (≈ 4.26 µM) | 128 (≈ 274 µM) | – |
| Cl.NCCCn1nnc(-c2ccc(-c3ccc(N4C[C@H](CO)OC4=O)cc3F)cn2)n1 [AKG-27] | 0.5 | 9 | 18.0 | 11.2 | 0.5 | 5.6 | – |
| CN(C)CCCn1nnc(-c2ccc(-c3ccc(N4C[C@H](CN)OC4=O)cc3F)cn2)n1 [AKG-30] | – | – | 151.2 | 884.0 | – | – | MIC [1, 15]: 0.125 µg/mL (≈ 0.284 µM); IC50 [2, 17]: 18.9 µg/mL (≈ 42.9 µM); MIC [7]: > 50 µg/mL; MIC [4, 16]: 0.125 µg/mL (≈ 0.284 µM); MIC [8]: > 50 µg/mL; MIC ([9]; read-out: MRSA MIC): > 50 µg/mL; MIC ([9]; read-out: MRSA MIC, ATCC BAA-1556): > 50 µg/mL; IC50 [5, 18]: 110 µg/mL (≈ 251 µM) |
| CCN(CC)CCCn1nnc(-c2ccc(-c3ccc(N4C[C@H](CN)OC4=O)cc3F)cn2)n1 [AKG-31] | – | – | 26.4 | 223.0 | – | – | – |
| COc1nc2ccc(Br)cc2cc1[C@@H](c1ccccc1)[C@@](O)(CCN(C)C)c1cccc2ccccc12 [Bedaquiline, reference compound] | – | – | – | – | – | – | MIC ([1]; Mycobacterium tuberculosis; M. tuberculosis Erdman / H37Rv, strains not separated; read-out: MIC): 0.125 µg/mL (≈ 0.225 µM) |
| CCCCCCCCCC(=O)N[C@@H](Cc1c[nH]c2ccccc12)C(=O)N[C@H](CC(N)=O)C(=O)N[C@@H](CC(=O)O)C(=O)N[C@@H]1C(=O)NCC(=O)N[C@@H](CCCN)C(=O)N[C@@H](CC(=O)O)C(=O)N[C@H](C)C(=O)N[C@@H](CC(=O)O)C(=O)NCC(=O)N[C@H](CO)C(=O)N[C@@H]([C@H](C)CC(=O)O)C(=O)N[C@@H](CC(=O)c2ccccc2N)C(=O)O[C@@H]1C [Daptomycin] | – | – | – | – | – | – | efficacy on day 6 post inoculation ([10]; DAP 2 mg/kg daily x4 alone or plus a single dose of Ls-AKG38 40 mg/kg): no significant efficacy; Kidneys, MRSA count ([10]; (relapse)): 8.11 ± 0.49 log10 cfu/gm of tissue; Liver, MRSA count ([10]; (relapse)): 7.65 ± 0.26 log10 cfu/gm of tissue; Lungs, MRSA count ([10]; (relapse)): 8.00 ± 0.66 log10 cfu/gm of tissue; Spleen, MRSA count ([10]; (relapse)): 7.91 ± 0.54 log10 cfu/gm of tissue; Vegetations, MRSA count ([10]; (relapse)): 9.18 ± 0.22 log10 cfu/gm of tissue; Kidneys, MRSA count ([10]; day 6): 6.90 ± 0.61 log10 cfu/gm of tissue; Liver, MRSA count ([10]; day 6): 6.77 ± 0.90 log10 cfu/gm of tissue; Lungs, MRSA count ([10]; day 6): 6.37 ± 0.64 log10 cfu/gm of tissue; Spleen, MRSA count ([10]; day 6): 7.43 ± 0.38 log10 cfu/gm of tissue; Vegetations, MRSA count ([10]; day 6): 8.13 ± 0.17 log10 cfu/gm of tissue |

Source: US20230348447A1, “OXAZOLIDINONE COMPOUNDS, LIPOSOME COMPOSITIONS COMPRISING OXAZOLIDINONE COMPOUNDS AND METHOD OF USE THEREOF” (priority 2020, published 2023)
